Test results: ChEMBL document CHEMBL1201862, “PubChem BioAssay data set” (2004)
One block for each compound: values may come before it. Activity calls are given as the source filed them.

Columns and labels:
[1] = target: Beta-2 adrenergic receptor (Homo sapiens, UniProt P07550); assay: beta2AR agonists driving receptor internalization, dose response, cell-based, FAP fluorogen, flow cytometry, cherry pick 1 (AID 588763); type: functional
[2] = target: Cytochrome P450 2D6 (Homo sapiens, UniProt P10635);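 further: CYP2D6 member of a cytochrome P450 panel assay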
Cytochrome P450 2D6, sequence (P10635 whole entry): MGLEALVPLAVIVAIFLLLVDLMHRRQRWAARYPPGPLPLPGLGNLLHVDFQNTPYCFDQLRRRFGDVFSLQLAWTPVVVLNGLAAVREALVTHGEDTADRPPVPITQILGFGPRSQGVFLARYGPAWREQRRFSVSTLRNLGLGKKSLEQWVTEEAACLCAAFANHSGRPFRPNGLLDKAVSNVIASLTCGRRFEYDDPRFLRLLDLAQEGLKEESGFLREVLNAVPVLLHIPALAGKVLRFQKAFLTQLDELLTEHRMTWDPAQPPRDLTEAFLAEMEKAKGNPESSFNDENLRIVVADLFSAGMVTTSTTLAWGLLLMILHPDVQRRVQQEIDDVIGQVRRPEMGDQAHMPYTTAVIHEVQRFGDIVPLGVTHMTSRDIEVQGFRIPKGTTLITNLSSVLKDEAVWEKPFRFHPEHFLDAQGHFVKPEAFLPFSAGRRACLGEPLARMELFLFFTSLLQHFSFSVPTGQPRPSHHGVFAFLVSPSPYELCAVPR

[3] = target: Cytochrome P450 3A4 (Homo sapiens, UniProt P08684);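 further: CYP3A4 tested as one member of a cytochrome P450 panel screen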
[4] = target: Cytochrome P450 2C19 (Homo sapiens, UniProt P33261); assay: Cytochrome panel assay with activity outcomes. Panel member name: p450-cyp2c19 Compounds with AC50 equal or less than 10 uM are considered active; type: functional; settings: read-out: AC50
[5] = target: Ephrin type-A receptor 4 (Mus musculus, UniProt Q03137); assay: inhibitors of EphA4 binding to KYL peptide, primary screen, biochemical, colorimetric, mouse EphA4 (AID 689); type: functional
Ephrin type-A receptor 4, sequence (Q03137 whole entry): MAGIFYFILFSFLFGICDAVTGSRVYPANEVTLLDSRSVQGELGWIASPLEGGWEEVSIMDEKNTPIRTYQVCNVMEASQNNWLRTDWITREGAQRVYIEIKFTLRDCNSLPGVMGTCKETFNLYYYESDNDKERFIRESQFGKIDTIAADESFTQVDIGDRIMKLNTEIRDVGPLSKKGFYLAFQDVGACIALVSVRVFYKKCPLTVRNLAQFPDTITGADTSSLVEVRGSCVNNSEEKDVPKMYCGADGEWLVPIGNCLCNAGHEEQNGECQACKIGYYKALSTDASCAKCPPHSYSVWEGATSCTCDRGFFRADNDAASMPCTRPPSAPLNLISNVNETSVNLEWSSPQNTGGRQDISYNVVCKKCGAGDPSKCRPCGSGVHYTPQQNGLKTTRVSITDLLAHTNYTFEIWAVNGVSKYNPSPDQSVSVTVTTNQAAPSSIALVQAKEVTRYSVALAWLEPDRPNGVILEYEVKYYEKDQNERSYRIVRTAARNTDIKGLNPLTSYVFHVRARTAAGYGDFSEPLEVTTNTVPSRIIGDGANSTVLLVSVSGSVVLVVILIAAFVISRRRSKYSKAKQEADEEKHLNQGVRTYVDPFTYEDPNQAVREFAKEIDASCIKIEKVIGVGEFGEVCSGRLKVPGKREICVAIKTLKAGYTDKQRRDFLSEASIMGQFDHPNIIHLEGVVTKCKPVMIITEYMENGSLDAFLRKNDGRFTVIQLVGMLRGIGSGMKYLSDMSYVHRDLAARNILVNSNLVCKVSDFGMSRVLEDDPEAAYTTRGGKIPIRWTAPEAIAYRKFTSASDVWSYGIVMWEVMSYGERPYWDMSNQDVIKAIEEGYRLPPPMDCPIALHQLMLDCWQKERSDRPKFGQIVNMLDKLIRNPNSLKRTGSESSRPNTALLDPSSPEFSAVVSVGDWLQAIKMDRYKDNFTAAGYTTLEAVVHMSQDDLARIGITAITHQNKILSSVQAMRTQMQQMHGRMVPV

[6] = target: Peroxisome proliferator-activated receptor gamma/Nuclear receptor coactivator 3 (Homo sapiens, UniProt P37231); assay: (§1) TR-FRET dose response biochemical High Throughput Screening assay for agonists of the steroid receptor coactivator 3 (SRC-3) recruitment by the peroxisome proliferator-activated receptor gamma (PPAR gamma): non-selective agonists. [Related pubchem assays: 1301 (Confirmation screen.), 1048 (Primary screen.)]; type: functional
[7] = target: T1, Heat shock factor protein 1 (Mus musculus, UniProt P38532); assay: HSF1 potentiators in luciferase reporter cells, confirmation, cell-based, NIH3T3, luminescence, dose retest (AID 435004); type: functional;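 further: stress induced by proteasome inhibitor MG132 added 30 min after compound; luciferase reporter driven by HSF1 response element in NIH3T3 cells; actives raise luminescence as potentiators of the MG132 stress response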
T1 sequence (P38532 whole entry): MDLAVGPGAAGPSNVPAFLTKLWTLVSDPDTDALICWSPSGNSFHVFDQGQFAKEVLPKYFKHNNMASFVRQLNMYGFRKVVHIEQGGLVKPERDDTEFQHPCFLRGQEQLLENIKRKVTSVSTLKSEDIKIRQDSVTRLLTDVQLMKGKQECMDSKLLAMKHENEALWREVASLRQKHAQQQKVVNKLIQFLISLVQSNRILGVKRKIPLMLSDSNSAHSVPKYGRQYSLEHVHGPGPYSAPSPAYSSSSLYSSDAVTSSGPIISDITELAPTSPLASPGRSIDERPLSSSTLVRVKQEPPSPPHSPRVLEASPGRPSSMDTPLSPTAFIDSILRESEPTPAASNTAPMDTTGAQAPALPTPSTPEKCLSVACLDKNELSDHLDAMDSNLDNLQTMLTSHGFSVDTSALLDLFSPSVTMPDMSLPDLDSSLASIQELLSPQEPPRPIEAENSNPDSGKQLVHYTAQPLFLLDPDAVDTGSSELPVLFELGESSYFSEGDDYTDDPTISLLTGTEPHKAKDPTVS

[8] = target: Peroxisome proliferator-activated receptor gamma/Nuclear receptor coactivator 1 (Homo sapiens, UniProt P37231); assay: as §1, with “1 (SRC-1)” for “3 (SRC-3)”, “assays (depositor defined):AID1300, AID1808, AID504735, AID631]” for “assays: 1301 (Confirmation screen.), 1048 (Primary screen.)]”; type: protein assay
[9] = target: Peroxisome proliferator-activated receptor gamma/Nuclear receptor coactivator 2 (Homo sapiens, UniProt P37231); assay: TR-FRET dose response biochemical High Throughput Screening assay for agonists of the steroid receptor coactivator 2 (SRC-2) recruitment by the peroxisome proliferator-activated receptor gamma (PPAR gamma): non-selective agonists. [Related pubchem assays: 1297, 1032 ]; type: functional
[10] = test system: Escherichia coli; assay: microbe, parasite or virus in culture
[11] = test system: Escherichia coli; assay: microbe, parasite or virus in culture; remark: listed apart in the source
[12] = target: CAAX prenyl protease 2 (Homo sapiens, UniProt Q9Y256); assay: human Rce1 protease inhibitors, dose response, biochemical, yeast membranes, quenched-peptide fluorescence, cherry-pick (AID 588849)
CAAX prenyl protease 2, sequence (Q9Y256 whole entry): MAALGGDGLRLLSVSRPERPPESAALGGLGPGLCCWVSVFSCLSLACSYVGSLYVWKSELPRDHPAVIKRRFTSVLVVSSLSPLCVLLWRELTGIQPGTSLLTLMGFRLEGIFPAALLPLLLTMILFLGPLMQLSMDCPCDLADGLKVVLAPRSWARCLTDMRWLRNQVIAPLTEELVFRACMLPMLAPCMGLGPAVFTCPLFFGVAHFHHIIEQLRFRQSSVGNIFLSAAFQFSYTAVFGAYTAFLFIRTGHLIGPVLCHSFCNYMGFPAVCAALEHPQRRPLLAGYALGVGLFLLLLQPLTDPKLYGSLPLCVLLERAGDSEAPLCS

[13] = target: Trypsin (Sus scrofa, UniProt P00761); assay: porcine trypsin inhibitors, dose response, selectivity assay for Rce1 protease inhibitor project, biochemical, quenched peptide fluorescence, cherry-pick (AID 488789)
[14] = test system: HEK293; assay: cells; settings: Homo sapiens;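 further: cells exposed to compound for 14 hours overnight before viability readout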
[15] = target: Tumor necrosis factor (Homo sapiens, UniProt P01375); assay: TNFa-triggered NF-kB activation inhibitors, SAR follow-up, cell-based, revised (AID 2337); type: functional
Tumor necrosis factor, sequence (P01375 whole entry): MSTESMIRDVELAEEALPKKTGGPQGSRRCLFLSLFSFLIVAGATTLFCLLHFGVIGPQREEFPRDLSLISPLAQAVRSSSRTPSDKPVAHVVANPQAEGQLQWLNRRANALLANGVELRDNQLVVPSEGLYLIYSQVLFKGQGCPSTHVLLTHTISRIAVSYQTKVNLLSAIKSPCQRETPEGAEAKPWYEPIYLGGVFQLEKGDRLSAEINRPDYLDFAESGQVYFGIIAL

[16] = target: Dual specificity tyrosine-phosphorylation-regulated kinase 1A (Rattus norvegicus, UniProt Q63470); type: biochemical, Homo sapiens
[17] = target: T2, Sentrin-specific protease 7 (Homo sapiens, UniProt Q9BQF6); assay: SENP7 protease inhibitors, SAR follow-up, biochemical, luminescence (AID 504497); type: functional
T2 sequence (Q9BQF6 whole entry): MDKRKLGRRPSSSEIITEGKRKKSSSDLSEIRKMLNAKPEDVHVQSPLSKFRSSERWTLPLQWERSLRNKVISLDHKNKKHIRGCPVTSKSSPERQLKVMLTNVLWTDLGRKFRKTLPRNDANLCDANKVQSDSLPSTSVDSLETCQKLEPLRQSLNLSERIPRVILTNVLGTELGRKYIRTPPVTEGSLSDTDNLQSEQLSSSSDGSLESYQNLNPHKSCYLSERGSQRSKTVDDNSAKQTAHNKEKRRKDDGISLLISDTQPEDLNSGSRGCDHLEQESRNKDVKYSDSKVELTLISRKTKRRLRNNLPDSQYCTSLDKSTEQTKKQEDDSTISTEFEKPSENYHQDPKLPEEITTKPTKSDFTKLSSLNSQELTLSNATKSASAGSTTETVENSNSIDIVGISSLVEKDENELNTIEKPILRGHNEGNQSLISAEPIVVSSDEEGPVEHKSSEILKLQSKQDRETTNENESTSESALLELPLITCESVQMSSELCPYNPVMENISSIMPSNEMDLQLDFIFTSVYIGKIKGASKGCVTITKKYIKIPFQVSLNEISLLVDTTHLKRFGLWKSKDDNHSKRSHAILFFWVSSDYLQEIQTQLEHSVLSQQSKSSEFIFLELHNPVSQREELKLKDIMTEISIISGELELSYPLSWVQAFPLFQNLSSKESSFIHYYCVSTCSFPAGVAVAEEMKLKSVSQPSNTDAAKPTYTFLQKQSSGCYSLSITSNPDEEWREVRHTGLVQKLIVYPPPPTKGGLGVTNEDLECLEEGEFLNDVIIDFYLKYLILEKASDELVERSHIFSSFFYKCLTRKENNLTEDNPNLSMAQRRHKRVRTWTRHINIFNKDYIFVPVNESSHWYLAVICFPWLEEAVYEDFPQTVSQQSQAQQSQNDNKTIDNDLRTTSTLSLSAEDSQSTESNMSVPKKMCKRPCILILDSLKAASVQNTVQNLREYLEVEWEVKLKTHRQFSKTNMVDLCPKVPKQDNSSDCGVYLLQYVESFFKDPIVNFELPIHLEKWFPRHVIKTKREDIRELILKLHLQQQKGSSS

[18] = target: T3, Sentrin-specific protease 6 (Homo sapiens, UniProt Q9GZR1); assay: SAR Analysis of small molecule inhibitors of Sentrin-specific protease 6 (SENP6) using a Luminescent assay. [Related pubchem assays (depositor defined):AID2582, AID2599]; type: functional
T3 sequence (Q9GZR1 whole entry): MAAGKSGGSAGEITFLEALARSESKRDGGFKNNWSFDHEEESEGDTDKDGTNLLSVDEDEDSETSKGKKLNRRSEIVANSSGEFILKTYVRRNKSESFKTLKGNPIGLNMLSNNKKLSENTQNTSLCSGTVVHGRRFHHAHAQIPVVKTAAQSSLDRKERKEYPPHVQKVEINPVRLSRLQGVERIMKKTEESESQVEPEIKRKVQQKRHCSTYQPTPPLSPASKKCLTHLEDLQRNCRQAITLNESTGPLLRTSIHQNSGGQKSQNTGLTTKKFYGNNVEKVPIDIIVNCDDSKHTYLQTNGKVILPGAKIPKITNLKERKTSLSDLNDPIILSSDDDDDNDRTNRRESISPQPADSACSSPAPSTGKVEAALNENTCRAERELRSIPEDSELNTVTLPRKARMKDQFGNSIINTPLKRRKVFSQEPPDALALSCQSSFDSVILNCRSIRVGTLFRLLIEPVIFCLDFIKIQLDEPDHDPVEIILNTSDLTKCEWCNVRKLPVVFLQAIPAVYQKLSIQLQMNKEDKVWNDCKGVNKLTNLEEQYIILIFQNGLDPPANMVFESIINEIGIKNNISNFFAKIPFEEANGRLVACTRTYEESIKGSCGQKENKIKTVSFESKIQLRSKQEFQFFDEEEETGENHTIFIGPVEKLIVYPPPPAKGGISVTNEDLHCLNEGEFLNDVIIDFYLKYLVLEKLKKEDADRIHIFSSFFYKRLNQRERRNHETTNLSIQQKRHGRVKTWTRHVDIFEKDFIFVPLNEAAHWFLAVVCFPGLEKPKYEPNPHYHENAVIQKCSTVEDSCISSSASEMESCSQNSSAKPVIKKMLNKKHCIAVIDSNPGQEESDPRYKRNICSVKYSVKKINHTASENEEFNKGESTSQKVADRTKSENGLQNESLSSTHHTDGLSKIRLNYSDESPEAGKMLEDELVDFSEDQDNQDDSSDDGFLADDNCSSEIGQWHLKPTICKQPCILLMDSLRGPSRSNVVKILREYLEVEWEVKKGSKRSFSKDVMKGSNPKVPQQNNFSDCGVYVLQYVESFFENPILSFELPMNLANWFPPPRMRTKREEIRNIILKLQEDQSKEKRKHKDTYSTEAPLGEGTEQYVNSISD

[19] = target: T4, Sentrin-specific protease 8 (Homo sapiens, UniProt Q96LD8); assay: SENP8 protease inhibitors, SAR follow-up, biochemical, luminescence (AID 504501); type: functional
T4 sequence (Q96LD8 whole entry): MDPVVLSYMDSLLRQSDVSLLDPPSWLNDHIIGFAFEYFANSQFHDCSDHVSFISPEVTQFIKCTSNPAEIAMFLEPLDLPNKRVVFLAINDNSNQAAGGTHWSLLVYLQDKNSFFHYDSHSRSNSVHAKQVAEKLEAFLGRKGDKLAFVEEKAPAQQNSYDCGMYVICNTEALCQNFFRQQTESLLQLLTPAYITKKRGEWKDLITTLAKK

[20] = target: T5, Caspase-3 (Homo sapiens, UniProt P42574); assay: SAR Analysis of small molecule inhibitors of Sentrin-specific proteases (SENPs) using a Caspase-3 Selectivity assay. [Related pubchem assays (depositor defined):AID2540, AID2599, AID434973, AID489001]; type: functional
T5 sequence (P42574 whole entry): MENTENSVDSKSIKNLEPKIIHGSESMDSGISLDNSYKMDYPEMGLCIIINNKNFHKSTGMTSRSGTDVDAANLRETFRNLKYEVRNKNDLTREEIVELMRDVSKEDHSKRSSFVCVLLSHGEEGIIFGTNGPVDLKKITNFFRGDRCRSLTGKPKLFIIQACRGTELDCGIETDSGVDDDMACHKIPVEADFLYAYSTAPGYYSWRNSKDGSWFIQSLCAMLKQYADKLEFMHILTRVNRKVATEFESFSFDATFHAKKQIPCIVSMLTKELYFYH

[21] = target: Exodeoxyribonuclease V (Escherichia coli (strain K12), UniProt P04993+P07648+P08394); assay: E. coli RecBCD inhibitors, dose response, counter-screen for AddAB inhibitor project, absorbance, V66 E. coli, mutant T4 phage (AID 492957); type: functional, cell-based, Escherichia coli str. K-12 substr. MG1655
Exodeoxyribonuclease V, sequence (P04993 whole entry): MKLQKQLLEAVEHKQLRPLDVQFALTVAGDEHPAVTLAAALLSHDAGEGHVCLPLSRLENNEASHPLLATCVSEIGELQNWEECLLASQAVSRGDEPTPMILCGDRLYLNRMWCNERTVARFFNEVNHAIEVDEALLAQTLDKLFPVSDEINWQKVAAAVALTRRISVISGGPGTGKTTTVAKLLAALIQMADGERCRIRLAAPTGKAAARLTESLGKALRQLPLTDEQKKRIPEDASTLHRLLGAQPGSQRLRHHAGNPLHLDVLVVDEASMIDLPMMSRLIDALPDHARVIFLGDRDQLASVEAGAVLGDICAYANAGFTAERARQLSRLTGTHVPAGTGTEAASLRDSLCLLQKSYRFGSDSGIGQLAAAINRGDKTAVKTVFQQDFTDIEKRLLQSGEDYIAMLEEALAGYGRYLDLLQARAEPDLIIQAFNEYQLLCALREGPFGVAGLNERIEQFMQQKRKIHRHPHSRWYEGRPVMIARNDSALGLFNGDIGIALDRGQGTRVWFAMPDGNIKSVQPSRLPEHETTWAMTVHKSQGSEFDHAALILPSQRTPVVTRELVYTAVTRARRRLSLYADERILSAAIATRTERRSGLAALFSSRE
Exodeoxyribonuclease V, sequence (P07648 whole entry): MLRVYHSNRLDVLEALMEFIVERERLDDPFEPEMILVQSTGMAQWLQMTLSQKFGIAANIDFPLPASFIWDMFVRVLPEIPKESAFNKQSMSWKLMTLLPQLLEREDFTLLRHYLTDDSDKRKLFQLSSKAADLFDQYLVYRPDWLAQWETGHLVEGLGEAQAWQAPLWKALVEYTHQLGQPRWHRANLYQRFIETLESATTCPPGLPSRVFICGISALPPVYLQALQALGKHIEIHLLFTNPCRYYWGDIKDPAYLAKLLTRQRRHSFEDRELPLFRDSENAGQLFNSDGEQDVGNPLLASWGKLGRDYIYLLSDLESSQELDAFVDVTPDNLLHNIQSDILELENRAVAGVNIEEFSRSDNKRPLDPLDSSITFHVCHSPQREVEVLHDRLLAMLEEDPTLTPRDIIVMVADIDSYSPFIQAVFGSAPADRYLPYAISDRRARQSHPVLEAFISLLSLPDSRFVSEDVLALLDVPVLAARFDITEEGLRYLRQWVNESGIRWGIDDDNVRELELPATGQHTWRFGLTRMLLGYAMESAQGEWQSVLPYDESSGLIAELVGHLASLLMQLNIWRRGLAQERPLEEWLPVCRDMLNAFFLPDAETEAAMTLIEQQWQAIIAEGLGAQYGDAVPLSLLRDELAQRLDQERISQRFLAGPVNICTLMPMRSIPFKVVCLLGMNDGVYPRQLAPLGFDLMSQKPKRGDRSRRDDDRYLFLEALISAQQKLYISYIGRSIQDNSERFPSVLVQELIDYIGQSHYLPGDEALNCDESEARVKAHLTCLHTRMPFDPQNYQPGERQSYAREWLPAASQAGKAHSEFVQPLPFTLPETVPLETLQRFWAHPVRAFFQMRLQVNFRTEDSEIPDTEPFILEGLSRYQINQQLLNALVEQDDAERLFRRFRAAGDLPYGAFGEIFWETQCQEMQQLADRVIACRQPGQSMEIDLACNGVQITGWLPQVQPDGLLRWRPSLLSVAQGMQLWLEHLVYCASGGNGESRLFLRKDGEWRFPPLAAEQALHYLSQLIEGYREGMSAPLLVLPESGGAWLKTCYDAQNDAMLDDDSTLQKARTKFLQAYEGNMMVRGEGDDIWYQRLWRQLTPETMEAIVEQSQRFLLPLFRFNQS
Exodeoxyribonuclease V, sequence (P08394 whole entry): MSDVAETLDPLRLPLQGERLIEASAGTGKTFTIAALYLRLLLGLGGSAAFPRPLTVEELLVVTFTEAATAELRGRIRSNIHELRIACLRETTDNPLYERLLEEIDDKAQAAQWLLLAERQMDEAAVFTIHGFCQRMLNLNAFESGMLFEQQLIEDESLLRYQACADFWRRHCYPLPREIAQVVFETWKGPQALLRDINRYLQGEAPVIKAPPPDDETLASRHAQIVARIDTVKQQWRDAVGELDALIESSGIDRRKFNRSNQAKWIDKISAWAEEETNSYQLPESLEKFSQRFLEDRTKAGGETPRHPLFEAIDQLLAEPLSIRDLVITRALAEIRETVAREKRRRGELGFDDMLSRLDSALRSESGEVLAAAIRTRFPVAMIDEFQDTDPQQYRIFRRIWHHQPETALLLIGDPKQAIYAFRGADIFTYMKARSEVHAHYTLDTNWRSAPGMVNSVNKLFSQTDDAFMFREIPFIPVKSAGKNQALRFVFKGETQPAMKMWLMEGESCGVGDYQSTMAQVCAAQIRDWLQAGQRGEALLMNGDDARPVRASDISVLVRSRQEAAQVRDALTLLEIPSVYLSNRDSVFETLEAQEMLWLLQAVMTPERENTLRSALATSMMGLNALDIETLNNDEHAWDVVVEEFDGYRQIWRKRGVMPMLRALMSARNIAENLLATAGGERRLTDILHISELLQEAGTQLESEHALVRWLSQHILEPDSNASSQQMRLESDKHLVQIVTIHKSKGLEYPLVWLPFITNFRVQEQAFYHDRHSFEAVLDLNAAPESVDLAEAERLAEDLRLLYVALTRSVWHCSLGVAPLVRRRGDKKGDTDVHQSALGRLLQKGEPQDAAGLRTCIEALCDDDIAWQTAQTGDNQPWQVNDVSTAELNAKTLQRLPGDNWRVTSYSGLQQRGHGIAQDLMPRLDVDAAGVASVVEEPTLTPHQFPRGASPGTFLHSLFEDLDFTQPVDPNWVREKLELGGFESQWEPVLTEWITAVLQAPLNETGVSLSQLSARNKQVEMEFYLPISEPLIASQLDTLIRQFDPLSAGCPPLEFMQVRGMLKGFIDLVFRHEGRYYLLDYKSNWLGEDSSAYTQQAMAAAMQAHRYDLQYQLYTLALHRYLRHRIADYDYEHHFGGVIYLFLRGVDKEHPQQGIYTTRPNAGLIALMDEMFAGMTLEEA

[22] = Counterscreen for AddAB inhibitors: absorbance-based bacterial cell-based high throughput dose response assay for inhibitors of bacterial viability. [Related pubchem assays (depositor defined):AID435030, AID449728, AID449731, AID488942, AID488955, AID488956]; type: functional

SMILES: COc1cc(NC(=O)c2ccc(COCC(F)(F)F)cc2)cc(OC)c1OC
AC50 [2]: inconclusive | AC50 [3]: 22.4 µM (inconclusive) | AC50 [4]: 28.2 µM (inconclusive) | IC50 [5]: > 100 µM (not active)

SMILES: CC1(C)CC(CCNS(=O)(=O)c2ccccc2)(c2ccccc2)CCO1 (centres undefined)
AC50 [10]: 251 µM (active) | AC50 [11]: 52.9 µM (active)

SMILES: C=CCN1C=C2C(=O)C(C)(OC(=O)c3ccc(OC)cc3)C(=O)C(c3ccco3)=C2C=C1CCCC (centres undefined)
AC50 [11]: 22.3 µM (active)

SMILES: Cc1c(Nc2ncnc3c2cnn3-c2ccccc2)c(=O)n(-c2ccccc2)n1C
AC50 [10]: 51.5 µM (active)

SMILES: COC(=O)c1c(-c2ccc(OC)cc2)oc2ccc(-c3ccc(OC)nc3)cc12
AC50 [12]: 1.15 µM (active) | AC50 [13]: 5.18 µM (active)

SMILES: O=C(Nc1ccc(F)cc1)c1ccc(CN2CCCCC2)cc1
IC50 [14]: > 20 µM (inactive) | IC50 [15]: > 20 µM (inactive)

SMILES: CCn1cc(C(=O)O)c(=O)c2cnc(N3CCN(C(=S)Nc4ccccc4C(F)(F)F)CC3)nc21
IC50 [21]: > 39.5 µM (inactive) | IC50 [22]: 3.33 µM (active)

The next lines start with results.

EC50 [1]: 2.2 µM (active)
SMILES: NC(=O)CC(NC(=O)Cc1ccc(Cl)cc1)c1ccc(NCCCN2CCCC2=O)c([N+](=O)[O-])c1 (centres undefined)

EC50 [6]: > 79.4 µM (not active) | EC50 [7]: 17.3 µM (active) | EC50 [8]: > 79.4 µM (inactive) | EC50 [9]: > 79.4 µM (not active)
SMILES: CCN(CC)CCCNC(=O)CSc1c2c(nc3cc(Cl)ccc13)CCCC2

AC50 [2]: inconclusive
SMILES: Cc1ccc(SCc2noc(C(=O)NCC3CCCO3)c2C(=O)O)cc1C (centres undefined)

AC50 [16]: 0.622 µM (active)
SMILES: O=C1NC(=S)SC1=Cc1ccc(F)cc1

IC50 [17]: > 99 µM (inactive) | IC50 [18]: > 99 µM (inactive) | IC50 [20]: > 99 µM (inactive)
SMILES: O=[N+]([O-])c1cc(/C=N/Nc2cc(N3CCOCC3)nc(N3CCOCC3)n2)cc2c1OCO2
IC50 [19]: > 99 µM (inactive)

IC50 [17]: 1.53 µM (active) | IC50 [18]: 1.22 µM (active) | IC50 [20]: 1.98 µM (active)
SMILES: CC(C)OC(=O)c1c(-c2ccc(Br)cc2)csc1NC(=O)C1CCC1
IC50 [19]: 1.58 µM (active)
